Read-outs that look alike come from different tables or passages of the source.
Tests used:
[1] = system: HMLER (human breast cancer bulk cell); assay: MTT cytotoxicity assay, HMLER; format: cell-based; settings: 72 hr, MTT; read-out: IC50 HMLER
[2] = system: HMLER-shEcad (human breast cancer stem cell); assay: MTT cytotoxicity assay, HMLER-shEcad; format: cell-based; settings: 72 hr, MTT; read-out: IC50 HMLER-shEcad
[3] = system: MCF-10A (human breast epithelial cell); assay: cells
Source text: HMLER (human mammary endothelial cancer cells), HMLER-shEcad (human mammary endothelial cancer stem cells), and MCF-10A (healthy human mammary endothelial) cells were maintained in Mammary Epithelial Cell Growth Medium (MEGM) with supplements and growth factors: bovine pituitary extract (BPE), hydrocortisone, human epidermal growth factor (hEGF), insulin, and gentamicin/amphotericin-B. HEK293T (human embryonic kidney cell), and U2OS (homo sapiens bone osteosarcoma) cells were maintained in Dulbecco's Modified Eagle's Medium (DMEM) with a final concentration of 10% fetal bovine serum. The cells were grown in T75 flask at 310 K in a humidified atmosphere containing 5% CO2.
The colourimetric MTT (3-(4,5-dimethylthiazol-2-yl)-2,5-diphenyltetrazolium bromide) assay was used to determine the toxicity of the anti-cancer peptides and conventional anti-cancer drugs. 5×10^3 cells were seeded in each well of a 96-well microplate. The cells were incubated overnight. Elevated concentrations of the compounds (0, 0.1, 0.2, 0.4, 0.8, 1.6, 3.1, 6.3, 12.5, 25, 50 and 100 μM) were added and incubated for 72 hr with a total volume 200 μL. The stock solutions of the compounds were prepared as 5 mM solutions in DMSO and diluted using media or in pure water. The final concentration of DMSO in each well was either 0.5% or 0% and this amount was present in the untreated control. After 72 hr, 20 μL of a 4 mg/mL solution of MTT in PBS was added to each well, and the plate was incubated for an additional 4 hr. The MEGM/MTT mixture was aspirated and 100 μL of DMSO was added to dissolve the resulting purple formazan crystals. The absorbance of the solutions in each well was read at 550 nm wavelength. Absorbance values were normalized to either DMSO-containing or non DMSO-containing control wells and plotted as concentration of test compound versus % cell viability. ICso values were interpolated from the resulting dose dependent curves.
The peptides were screened against several different human cell lines and their cytotoxicity were determined. Cell lines utilised include MCF-10A (human breast epithelial cell), HMLER (human breast cancer bulk cell), HMLER-shEcad (human breast cancer stem cell), HEK293T (human embryonic kidney cell), and U2OS (human bone osteosarcoma).

[4] = system: U2OS (human bone osteosarcoma); assay: MTT cytotoxicity assay, U2OS; format: cell-based; settings: 72 hr
[5] = system: HEK293T (human embryonic kidney cell); assay: MTT cytotoxicity assay, HEK293T; format: cell-based; settings: 72 hr, MTT; read-out: IC50 HEK293T
[6] = Tryptophan fluorescent binding assay, POPC vesicles; settings: 50 μM peptide, PBS pH 7.4
Method: (§1) In brief, 50 μM peptides were fixed and incubated with titrated POPC vesicles (black) or 3POPC/1POPG vesicles (grey) at concentrations of 0, 12.5, 25, 50, 100, 250, 500, 1000, 2500, and 5000 μM in phosphate buffered saline (1X, pH 7.4). The lipid concentration that causes 50% peptide binding was determined using a tryptophan fluorescent binding assay and the values are shown as lipid per peptide.
(§2) The lipids 1-palmitoyl-2-oleoyl-sn-glycero-3-phosphocholine (POPC), 1-palmitoyl-2-oleoyl-snglycero-3-phospho-(1′-rac-glycerol) (POPG) were purchased from Avanti Polar Lipids and dissolved in chloroform. Large unilamellar vesicles (LUVs) were produced by extrusion through 100 nm pore filter using an extruder and filters purchased from Avanti Polar Lipids.
(§3) Peptides (50 μM) and POPC/POPG LUVs (600 μM) were prepared in 10 mM phosphate buffer (pH 7.0). The solutions were incubated and measured after 60 minutes. Excitation was fixed at 280 nm (slit 9 nm) and emission was collected from 300 to 450 nm (slit 9 nm). The spectra were recorded using a Synergy H1 Hybrid Multi-Mode Reader (FIG. 3A) and Cytation™ 5 Cell Imaging Multi-Mode Reader (FIG. 2) from BioTek and were averaged over 3 scans.
(§4) Table 3 illustrates the lipid concentration-induced 50% peptide binding onto a liposome. 50 μM peptide was fixed and incubated with titrated lipid (POPC vesicles or 3POPC/1POPG vesicles) at concentrations of 0, 12.5, 25, 50, 100, 250, 500, 1000, 2500, and 5000 μM in phosphate buffered saline (1X, pH 7.4). The lipid concentration that causes 50% peptide binding was determined using tryptophan fluorescent binding assay and the values are shown as lipid per peptide. IN-terminus is free, C-terminus: —W—NH2.

[7] = Tryptophan fluorescent binding assay, 3POPC/1POPG vesicles; settings: 50 μM peptide, PBS pH 7.4
Method: as §1, §2, §3, §4

[8] = ANTS/DPX liposome leakage assay, POPC vesicles; format: biochemical; settings: 0.5 mM vesicles
Method: (§5) In brief, 0.5 mM POPC vesicles (grey) or POPC:POPG vesicles (ratio 3:1, black) were incubated with peptide concentrations of 0, 0.02, 0.04, 0.08, 0.16, 0.32, 0.64, 1.25, 2.5, 5, 10, and 20 μM in each A) hydrochloric acid-adjusted phosphate buffered saline (1X, pH 4.8) and B) phosphate buffered saline (1X, pH 7.4).
as §2
(§6) 5 mM ANTS (8-aminonaphthalene-1,3,6-trisulfonic acid, disodium salt) and 12.5 mM DPX (p-xylene-bis-pyridinium bromide) were entrapped in 0.1 μm diameter extruded vesicles with lipids. Gel filtration chromatography using a Sephadex G-100 (GE Healthcare Life Sciences Inc) was used to remove external free ANTS/DPX from LUVs with entrapped contents. LUVs were diluted to 0.5 mM and used to measure the leakage activity by addition of aliquots of peptides. Leakage was measured after 3 h incubation. 10% Triton was used as the positive control to measure the maximum leakage of the vesicle. Fluorescence emission spectra were recorded using excitation and emission wavelength of 350 nm and 510 nm for ANTS/DPX using a BioTek Synergy H1 Hybrid Multi-Mode Reader.
(§7) Table 4 illustrates peptide concentration-induced 50 ANTS/DPX liposome leakage. 0.5 mM POPC and 3POPC/1POPG vesicles were fixed and incubated with titrated peptide concentration (0, 0.02, 0.04, 0.08, 0.16, 0.32, 0.64, 1.25, 2.5, 5, 10, and 20 μM) each in phosphate buffered saline (1X, pH 7.4) and hydrochloric acid-adjusted phosphate buffered saline (1X, pH 4.8). The values are shown as lipid per peptide. IN-terminus is free, C-terminus: —W—NH2.

[9] = ANTS/DPX liposome leakage assay, 3POPC/1POPG vesicles; format: biochemical; settings: for Peptide Concentration-induced 50% ANTS/DPX leakage at pH 4.8 (L/P) 3POPC/1POPG Vesicle / Peptide Concentration-induced 50% ANTS/DPX leakage at pH 7.4 (L/P) 3POPC/1POPG Vesicle: 0.5 mM vesicles; for liposome leakage activity from anionic vesicle at pH 4.8: compared with zwitterionic vesicle
Method: as §5, §2, §6, §7

[10] = read-out: IC50 MCF-10A, 72 hr, MTT

| Compound | IC50 [1] | IC50 [2] | IC50 [3] | IC50 [4] | IC50 [5] | Lipid Concentration-induced 50% Peptide Binding (L/P) POPC Vesicle [6] | Lipid Concentration-induced 50% Peptide Binding (L/P) 3POPC/1POPG Vesicle [7] | Peptide Concentration-induced 50% ANTS/DPX leakage at pH 4.8 (L/P) POPC Vesicle [8] | Peptide Concentration-induced 50% ANTS/DPX leakage at pH 7.4 (L/P) POPC Vesicle [8] | Peptide Concentration-induced 50% ANTS/DPX leakage at pH 4.8 (L/P) 3POPC/1POPG Vesicle [9] | Peptide Concentration-induced 50% ANTS/DPX leakage at pH 7.4 (L/P) 3POPC/1POPG Vesicle [9] | liposome leakage activity from anionic vesicle at pH 4.8 [9] | IC50 [3, 10] |
| --- | --- | --- | --- | --- | --- | --- | --- | --- | --- | --- | --- | --- | --- |
| CC(C)C[C@H](NC(=O)CN)C(=O)N[C@@H](CC(C)C)C(=O)N[C@@H](CCC(=O)O)C(=O)N[C@@H](CC(C)C)C(=O)N[C@@H](CC(C)C)C(=O)N[C@@H](CCC(=O)O)C(=O)N[C@@H](CC(C)C)C(=O)N[C@@H](CC(C)C)C(=O)N[C@@H](CC(C)C)C(=O)N[C@@H](Cc1c[nH]cn1)C(=O)N[C@@H](C)C(=O)N[C@@H](C)C(=O)NCC(=O)N[C@@H](Cc1c[nH]c2ccccc12)C(N)=O [EEH] | 3.3 ± 0.14 µM | 3.6 ± 0.85 µM | ≥ 100 µM | 19.6 ± 3.96 µM | 12.9 ± 0.14 µM | 0.50 L/P | 0.50 L/P | 58 L/P | 738 L/P | 168 L/P | 755 L/P | relatively higher liposome leakage activity | – |
| CC(C)C[C@H](NC(=O)CN)C(=O)N[C@@H](CC(C)C)C(=O)N[C@@H](CCC(=O)O)C(=O)N[C@@H](CC(C)C)C(=O)N[C@@H](CC(C)C)C(=O)N[C@@H](Cc1c[nH]cn1)C(=O)N[C@@H](CC(C)C)C(=O)N[C@@H](CC(C)C)C(=O)N[C@@H](CC(C)C)C(=O)N[C@@H](CCC(=O)O)C(=O)N[C@@H](C)C(=O)N[C@@H](C)C(=O)NCC(=O)N[C@@H](Cc1c[nH]c2ccccc12)C(N)=O [EHE] | 3.9 ± 0.28 µM | 2.55 ± 0.07 µM | ≥ 100 µM | 18.2 ± 1.06 µM | 13 µM | 0.44 L/P | 0.44 L/P | 75 L/P | 952 L/P | 384 L/P | 706 L/P | relatively higher liposome leakage activity | – |
| CC(C)C[C@H](NC(=O)CN)C(=O)N[C@@H](CC(C)C)C(=O)N[C@@H](CCCCN)C(=O)N[C@@H](CC(C)C)C(=O)N[C@@H](CC(C)C)C(=O)N[C@@H](CCC(=O)O)C(=O)N[C@@H](CC(C)C)C(=O)N[C@@H](CC(C)C)C(=O)N[C@@H](CC(C)C)C(=O)N[C@@H](CCC(=O)O)C(=O)N[C@@H](C)C(=O)N[C@@H](C)C(=O)NCC(=O)N[C@@H](Cc1c[nH]c2ccccc12)C(N)=O [KEE] | 3.75 ± 0.78 µM | 2.05 ± 0.21 µM | ≥ 100 µM | 49.4 ± 13.3 µM | 11.1 ± 1.84 µM | 0.20 L/P | 0.20 L/P | 97 L/P | 626 L/P | 108 L/P | 657 L/P | – | – |
| GLLDLLELLLEAAG [DEE] | 5.55 ± 0.35 µM | 6.05 ± 2.76 µM | – | 61 ± 1.41 µM | 9.91 ± 0.44 µM | 0.63 L/P | 0.38 L/P | 110 L/P | 644 L/P | 164 L/P | 597 L/P | – | 8.4 ± 1.56 µM |
| GLLDLLELLLHAAG [DEH] | 5.35 ± 1.91 µM | 3.6 ± 0.42 µM | – | 36.5 ± 3.92 µM | 10.5 ± 4.67 µM | 0.75 L/P | 1.50 L/P | 63 L/P | 620 L/P | 193 L/P | 548 L/P | – | 20.2 ± 6.72 µM |
| GLLDLLHLLLEAAG [DHE] | 3.75 ± 0.92 µM | 2.8 ± 0.14 µM | – | 17.2 ± 1.06 µM | 11.1 ± 1.91 µM | 1.00 L/P | 0.72 L/P | 58 L/P | 566 L/P | 469 L/P | 581 L/P | – | 22.7 ± 4.31 µM |
| GLLDLLHLLLKAAG [DHK] | 1.75 ± 0.49 µM | 1.02 ± 0.12 µM | – | 20.4 ± 2.05 µM | 7.3 ± 0.42 µM | 0.20 L/P | 0.38 L/P | 47 L/P | 747 L/P | 183 L/P | 469 L/P | – | 5.05 ± 1.34 µM |
| GLLDLLKLLLEAAG [DKE] | 2.1 µM | 1.57 ± 0.33 µM | – | 9.93 ± 0.25 µM | 7.8 ± 1.41 µM | 0.56 L/P | 0.46 L/P | 21 L/P | 747 L/P | 469 L/P | 411 L/P | – | 4.75 ± 0.49 µM |
